Data: article PMC9220111, “Pharmacokinetics and Pharmacodynamics of Colistin Methanesulfonate in Healthy Chinese Subjects after Multi-Dose Regimen” (Antibiotics, 2022)
Entries after “also recorded” stand apart in the source; their conditions may differ. Read-outs that look alike come from different tables or passages of the source. Positions of bridges follow the written chain, without caps; N, C: chain ends. Non-standard residues stand in square brackets, D forms with d. Residues, ends and D or L forms follow the SMILES beside them. *: point of attachment. X1 = CC[C@H](C)CCCCC(=O)*; Dab = NCC[C@H](N)C(=O)O

How the values were obtained:
[1] = test system: extremely drug-resistant (XDR) P. aeruginosa; conditions: cited from earlier work
[2] = cited from earlier work
Protocol: CMS in clinic has generally been expressed as the internationally accepted term of c ... || A new CMS formula was produced with a 4:1 ratio of CMS A:CMS B, and met the requirements of the European Pharmacopoeia EP9.2 [9]. […] The Cavg,ss (95% CI) was 0.92 (0.85, 0.99) μg/mL after 7 days of 2.5 mg/kg CBA every 12 h (q12 h) administration of this new formulation, as simulated by the obtained single-dose PK parameters. The purpose of this study was to investigate the PK characteristics of CMS and colistin in plasma and urine following multip ... || This study evaluated the applicability of CMS at the recommended dosing regimen (2.5 mg/kg CBA q12 h) for the first time in Chinese subjects.

[3] = Plasma pharmacokinetics of CMS and colistin after multi-dose intravenous infusions of CMS; conditions: for CLr: renal clearance; for AI (accumulation index): Day 7, after 7 consecutive days of CMS 2.5 mg/kg CBA i.v. q12 h; for clearance: CLt; for Cmax: healthy Chinese subjects, UPLC-MS/MS
Protocol: (§2) A single-center, open-label, multi-dose trial design was conducted following multiple intravenous administrations of CMS in 12 healthy Chinese subjects.
(§3) The dose regimen was 2.5 mg/kg CBA for 7 consecutive days with 12 h between each administration, except for one dose on day 1 (first dose) and day 7 (last dose). Each intravenous infusion time was 90 ± 10 min.
(§4) The blood samples were collected on day 1 and day 7 at pre-dose during intravenous infusion (30 min and 60 min after the start of intravenous infusion), immediately after the end of intravenous infusion (1.5 h) and at 1.75 h, 2 h, 2.5 h, 3.5 h, 5 h, 7 h, 9 h, 12 h, 16 h and 24 h after the start of intravenous infusion. From day 2 to day 6, blood samples were collected before and immediately after the end of infusion of the first dose. All blood samples were collected and transferred into an EDTA-K2 tube, and were then centrifuged at 3500 rpm for 10 min at 4 °C. Within 1 h after blood collection, the plasma samples were stored at −70 ± 10 °C until analysis [10].
(§5) The concentrations of CMS and colistin in plasma and urine samples were analyzed with a verified ultra-performance liquid chromatography tandem mass spectrometry method [30]. To determine the free colistin concentration, the matrix was alkalized with 5% ammonia at 0–4 °C, and CMS concentrations were obtained with acid hydrolysis, and then loaded onto the Oasis weak cation exchange 96-well plate (WCX, Waters, Milford, MA, USA). The standard curves of colistin A/colistin B for the plasma and urine samples ranged from 0.0446/0.0332–4.46/3.32 μg/mL to 0.0223/0.0166–2.23/1.66 μg/mL [10], respectively. The concentrations of colistin and CMS were determined as the major components of colistin A+ colistin B and colistin A methanesulfonate (CMS A) + colistin B methanesulfonate (CMS B), respectively.
(§6) The PK parameters of CMS and colistin in plasma were calculated by the non-compartment model [23] using the WinNonlin8.0 software (Pharsight, Mountain View, CA, USA). […] The urine excretion rate was calculated according to the correction of renal clearance (CLr). The PK parameters in urine samples calculated included interval urinary excretion rate, cumulative urinary excretion rate and CLr.
(§7) The PK parameters were expressed as average ± standard deviation (mean ± SD). The main PK parameters after the first and last doses were evaluated by paired t test (SAS 9.4, SAS Institute, Inc., Cary, NC, USA). p value ≤ 0.05 was considered as significant.

[4] = value used to calculate fAUC0–24; cited from earlier work
Protocol: The target values of fAUC0–24/MIC used in this study were from published PK/PD study reports of colistin, conducted on animal infection models. […] The free colistin fraction f used was 50% [6, 31]. AUC0–24,ss values from this study were calculated as 2 times AUC0–12 on day 7 based on the twi ...

[5] = Urine excretion of CMS and colistin after multi-dose intravenous infusions of CMS; assay type: in vivo; conditions: human, 12 subjects, mean ± SD, read-out: Cumulative urine excretion rate within 0–24 h
Protocol: Urine samples (700 μL) were mixed with equal volume of 1% bovine serum albumin (BSA) prior and stored at −70 ± 10 °C until analysis.

[6] = Safety evaluation: clinical adverse events and laboratory tests; assay type: in vivo, human
Protocol: (§1) During the study, close observations and detailed records were kept in all subjects for clinical adverse events (AE), abnormal results of clinical laboratory tests and other specific examinations. The early renal damage indicators, including serum β2-microglobulin, serum Cysteine […] inhibitor C (Cystatin C), urine neutrophils gelatinase-associated lipocalin (NGAL) and urine β2-microglobulin, were tested at day 4 and day 8 after the start of drug administration.

[7] = human, in vivo; cited from earlier work
[8] = human, in vivo, iv
Protocol: as §2, §3, §4, §5, §6, §7

[9] = Early renal damage indicators, serum creatinine and urea; assay type: in vivo, human; conditions: Day8; individual subjects S01–S12, one line each; normal range 0.7-1.8 mg/L
Protocol: as §1

[10] = 33 patients with XDR P. aeruginosa UTIs
[11] = earlier CMS formula, CMS A:CMS B 1:2, healthy Chinese subjects
[12] = Day 1 (first dose), CMS 2.5 mg/kg CBA i.v., mean ± SD, n = 12, day 1 urine stored without BSA, for reference only, SD
[13] = Day 7 (last dose), CMS 2.5 mg/kg CBA i.v. q12 h 7 days, mean ± SD, n = 12, SD
[14] = Day 7 (last dose, steady state), CMS 2.5 mg/kg CBA i.v. q12 h 7 days, plasma, mean ± SD, n = 12, SD
[15] = human, plasma, iv, 2.5 mg/kg CBA, SD
[16] = 12 healthy Chinese subjects, CMS 2.5 mg/kg CBA i.v. q12 h 7 days
[17] = individual healthy Chinese subjects S01–S12, one line each, CMS 2.5 mg/kg CBA i.v. q12 h 7 days
[18] = Day 1 (first dose), CMS 2.5 mg/kg CBA i.v., mean ± SD, n = 12, SD
[19] = Day 1 (first dose), CMS 2.5 mg/kg CBA i.v., plasma, mean ± SD, n = 12, SD

In the case of `CC[C@H](C)CCCCC(=O)N[C@@H](CCN)C(=O)N[C@H](C(=O)N[C@@H](CCN)C(=O)N[C@H]1CCNC(=O)[C@H]([C@@H](C)O)NC(=O)[C@H](CCN)NC(=O)[C@H](CCN)NC(=O)[C@H](CC(C)C)NC(=O)[C@@H](CC(C)C)NC(=O)[C@H](CCN)NC1=O)[C@@H](C)O` [colistin] (X1-[Dab]T[Dab][Dab][Dab][dL]L[Dab][Dab]T; lactam 4-C), the “AUC0–24/MIC” value [1, 10] is given as 60.5 ± 56.4, the “fAUC0–24/MIC” value [1, 10] is given as 30.2 ± 28.2 and the “Cavg,ss” value ([1]; patients with XDR P. aeruginosa UTIs) is given as 1.19 (0.21–5.20) μg/mL. The “plasma Cavg,ss of colistin” value ([2]; 51 critically ill patients with normal renal function (CLCr ≥ 80 mL/min), FDA-recommended dose 2.5–5 mg CBA/kg) was 1.29 (0.45–5.28) μg/mL, the “median Cavg,ss concentration” value ([2]; 87 critically ill patients with CrCL >120 mL/min, loading dose 9 MIU then 4.5 MIU twice daily) was 1.6 (0.4–4.8) μg/mL and the “median concentration (plasma Cavg,ss of colistin)” value ([2]; 214 patients with different renal functions) was 2.35 (0.24–9.92) μg/mL. The “AUC0–12,ss” value [2, 11] was 9230 ± 1790 ng·h/mL, the “Cavg,ss” value [2, 11] was 760 ± 151 ng/mL and the “AUC0–12,ss” value ([2]; healthy Japanese subjects, CMS 2.5 mg/kg CBA i.v. twice a day for 2.5 days) was 25700 ± 7490 ng·h/mL. The “Patients achieving Cavg,ss at ≥1 μg/mL” value ([2]; patients with normal renal function at the recommended doses of EMA and FDA) was 65–75%, the “Cavg,ss (95% CI)” value ([2]; simulated from single-dose PK parameters, 7 days of 2.5 mg/kg CBA q12 h of the new formulation) was 0.92 (0.85, 0.99) μg/mL and the CLr [3, 12] was 0.013 ± 0.0067 mL/min/kg. The CLr [3, 13] was 0.025 ± 0.012 mL/min/kg, the “Cavg,ss” value [3, 14] was 1270 ± 270 ng/mL and the “Cmin,ss” value [3, 14] was 670 ± 220 ng/mL. The “AI (accumulation index)” value ([3]; mean ± SD, n = 12, SD) was 1.32 ± 0.06, the AUC(0-t) ([3]; human, plasma, iv, 2.5 mg/kg CBA, AUC0–12 (AUC0–12,ss), Day 7 (last dose, steady state), CMS 2.5 mg/kg CBA i.v. q12 h 7 days, plasma, mean ± SD, n = 12, SD) was 15300 ± 3290 ng·h/mL and the AUC(0-t) ([3]; human, plasma, iv, 2.5 mg/kg CBA, AUC0–12, Day 1 (first dose), CMS 2.5 mg/kg CBA i.v., plasma, mean ± SD, n = 12, SD) was 9800 ± 1710 ng·h/mL. The AUC(0-t) ([3]; human, plasma, iv, 2.5 mg/kg CBA, AUC0–24, Day 1 (first dose), CMS 2.5 mg/kg CBA i.v., plasma, mean ± SD, n = 12, SD) was 12600 ± 2550 ng·h/mL, the clearance ([3]; human, plasma, iv, 2.5 mg/kg CBA, Day 1 (first dose), CMS 2.5 mg/kg CBA i.v., mean ± SD, n = 12, SD) was 3.5 mL/min/kg and the clearance ([3]; human, plasma, iv, 2.5 mg/kg CBA, Day 7 (last dose, steady state), CMS 2.5 mg/kg CBA i.v. q12 h 7 days, mean ± SD, n = 12, SD) was 3 mL/min/kg. For the same compound, the Cmax ([3]; human, plasma, iv, 2.5 mg/kg CBA, Cmax, Day 1 (first dose), CMS 2.5 mg/kg CBA i.v. infusion 90 min, plasma, non-compartment model, mean ± SD, n = 12, SD) was 1170 ± 180 ng/mL, the Cmax ([3]; human, plasma, iv, 2.5 mg/kg CBA, Cmax, Day 7 (last dose, steady state), CMS 2.5 mg/kg CBA i.v. q12 h 7 days, plasma, mean ± SD, n = 12, SD) was 1790 ± 370 ng/mL and the half-life ([3]; human, plasma, iv, 2.5 mg/kg CBA, T1/2, Day 1 (first dose), CMS 2.5 mg/kg CBA i.v., plasma, mean ± SD, n = 12, SD) was 5.15 ± 0.95 h. For the same compound, the half-life ([3]; human, plasma, iv, 2.5 mg/kg CBA, T1/2, Day 7 (last dose), CMS 2.5 mg/kg CBA i.v. q12 h 7 days, plasma, mean ± SD, n = 12, SD) was 5.9 ± 0.58 h, the half-life ([3]; human, plasma, iv, 2.5 mg/kg CBA, T1/2, median, after the first dose, median, n = 12) was 4.97 h and the half-life ([3]; human, plasma, iv, 2.5 mg/kg CBA, T1/2, median, after the last dose, median, n = 12) was 6.1 h. It also gave a Tmax ([3]; human, plasma, iv, 2.5 mg/kg CBA, Day 1 (first dose), CMS 2.5 mg/kg CBA i.v., plasma, mean ± SD, n = 12, SD) of 4.42 ± 0.9 h, a Tmax ([3]; human, plasma, iv, 2.5 mg/kg CBA, Day 7 (last dose), CMS 2.5 mg/kg CBA i.v. q12 h 7 days, plasma, mean ± SD, n = 12, SD) of 3.38 ± 0.68 h and a Tmax ([3]; human, plasma, iv, 2.5 mg/kg CBA, median, after the first dose, median, n = 12) of 5 h. The Tmax ([3]; human, plasma, iv, 2.5 mg/kg CBA, median, after the last dose, median, n = 12) was 3.5 h, the Vd ([3]; human, plasma, iv, 2.5 mg/kg CBA, Vd, Day 1 (first dose), CMS 2.5 mg/kg CBA i.v., mean ± SD, n = 12, SD) was 1.52 ± 0.22 L/kg and the Vd ([3]; human, plasma, iv, 2.5 mg/kg CBA, Vd, Day 7 (last dose, steady state), CMS 2.5 mg/kg CBA i.v. q12 h 7 days, mean ± SD, n = 12, SD) was 1.66 ± 0.25 L/kg. It also gave a level at 48 h [3, 15] of 93 ± 42.8 ng/mL, a level at 72 h [3, 15] of 632 ± 155 ng/mL and a level at 96 h [3, 15] of 684 ± 177 ng/mL. For the same compound, the level at 120 h [3, 15] was 738 ± 217 ng/mL, the level at 144 h [3, 15] was 754 ± 238 ng/mL and the “free colistin fraction f” value [4] was 50%. The dose excreted ([5]; after the first dose, CMS 2.5 mg/kg CBA i.v., day 1 urine stored without BSA, for reference only) was 0.41 ± 0.28% and the dose excreted ([5]; urine, 2.5 mg/kg CBA, after the last dose (steady state), CMS 2.5 mg/kg CBA i.v. q12 h 7 days) was 1.22 ± 0.7%.

In the case of Colistin methanesulfonate [CMS], the “Deaths or serious adverse events” value [6, 16] is reported as “No serious adverse events were observed; also recorded: No deaths or other serious adverse events occurred”, the “Vital signs, QTc and electrocardiogram” value [6, 16] is reported as “No abnormal vital signs nor QTc prolongations or other clinically significant electrocardiogram abnormalities were found” and the Nephrotoxicity ([6]; 12 healthy Chinese subjects, CMS 2.5 mg/kg CBA i.v. q12 h 7 days, no increase in urine β2 microglobulin and urine NGAL) is reported as “no nephrotoxicity was observed; also recorded: No obvious nephrotoxicity occurred”. For the same compound, the “Subjects with adverse effects” value ([6]; 12 healthy Chinese subjects, after multi-dose i.v. infusions of CMS, all mild and transient) was “Eleven out of the twelve”, the “Abnormality in Laboratory Test” value [6, 17] was “Normal; also recorded: Decreased absolute value of neutrophils (2 days)” and the “Clinical Adverse Event (Duration)” value [6, 17] was “Facial itchiness (4 days and 12 h) Tongue numbness (5 days and 2 h) Dizziness (2 days and 16 h); also recorded: Facial itchiness (2 days and 3 h) Tongue numbness (5 days and 8 h); also recorded: Tongue numbness (6 days and 12 h) Lip numbness (5 days and 10 h) Sore throat (1 day and 23 h) Erythema (6 days and 13 h); also recorded: Normal; also recorded: Tongue numbness (5 days and 20 h) Dizziness (4 h); also recorded: Tongue numbness (5 days and 14 h); also recorded: Tongue numbness (5 days and 8 h) Dizziness (2 days and 13 h) Headache (1 day and 19 h) Lip numbness (1 day and 10 h) Skin itchiness (1 day and 20 h); also recorded: Tongue numbness (5 days and 20 h) Lip numbness (2 days and 15 h) Pharyngeal discomfort (5 days and 16 h) Facial numbness (4 days and 16 h)”. The CLt [3, 18] was 1.3 ± 0.33 mL/min/kg, the Vd [3, 18] was 0.15 ± 0.03 L/kg and the “fm (fraction of CMS converted to colistin in the body)” value [3, 18] was 0.27 ± 0.12. The “AUC0–12” value [3, 19] was 53730 ± 9770 ng·h/mL, the “AUC0–24” value [3, 19] was 53960 ± 9930 ng·h/mL and the CLr [3, 12] was 1 ± 0.17 mL/min/kg. For the same compound, the Cmax ([3]; Day 1 (first dose), CMS 2.5 mg/kg CBA i.v. infusion 90 min, plasma, non-compartment model, mean ± SD, n = 12, SD) was 22200 ± 4380 ng/mL, the “fm (fraction of CMS converted to colistin in the body)” value [3, 13] was 0.45 ± 0.15 and the CLr [3, 13] was 0.67 ± 0.33 mL/min/kg. The CLt ([3]; Day 7 (last dose, steady state), CMS 2.5 mg/kg CBA i.v. q12 h 7 days, mean ± SD, n = 12, SD) was 1.3 ± 0.33 mL/min/kg, the “Cavg,ss” value [3, 14] was 4410 ± 754 ng/mL and the “Cmin,ss” value [3, 14] was 133 ± 141 ng/mL. For the same compound, the “AI (accumulation index)” value ([3]; mean ± SD, n = 12, SD) was 1.07 ± 0.10, the incidence of nephrotoxicity [7] was 26.0–74.1% and the “T1/2, median” value [8] was 1.72 h. The half-life [8] was 1.52 h and the “serum β2-microglobulin” value [9] was 1.72 mg/L.
